Results: patent US20100056519A1, “COMPOSITION AND METHOD FOR REDUCING PLATELET ACTIVATION AND FOR THE TREATMENT OF THROMBOTIC EVENTS” (priority 2008, published 2010)

Tests used:
Assay type in all cases: cell-based, human
GP37 (CD165) = assay: Unstimulated whole blood flow cytometry, GP37; details: Mean ± SD
Experimental: (§1) The methodology employed was conventional aggregation induced by 5 μM ADP, 1 μg/ml collagen, 10 μM TRAP, whole blood aggregation with 1 μg/ml collagen, Ultegra, and PFA-100 Analyzers, expression of 14 intact, and TRAP-stimulated major receptors by whole blood flow cytometry were utilized to assess platelet activity after preincubation with escalating concentrations of E5555 (20 ng/ml, 50 ng/ml, and 100 ng/ml). The experiments were performed in healthy volunteers, CAD patients treated with ASA, and CAD patients treated with ASA and clopidogrel combination (n=10, for each group).
(§2) An Informed Consent was obtained from all volunteers. Drug users were excluded from data analysis. The study was approved by Quorum Institutional Review Board. All subjects underwent blood sampling after at least 30 minutes of rest and two or more hours of fasting. Blood (28 ml) was drawn between 8 and 10 a.m. in order to avoid any diurnal influence and sampled from an antecubital vein using a 21-gauge butterfly needle containing 3.2% sodium citrate (1:9 volume) after having discarded the first 1.5 ml of free running blood. Four Vacutainer tubes (7.0 ml) were collected for a total of 28 ml of whole blood-citrate mixture from each study participant. Chronologically, blood samples were delivered to the core laboratory facility within 45 minutes after drawing. Then all tubes of blood-citrate mixture were pooled. One portion of pooled blood (5 ml) was kept as an internal control and pretreated with the vehicle. The remaining blood (23 ml) was used for the in vitro exposure to E5555 at concentrations of 20 ng/ml, 50 ng/ml, and 100 ng/ml. […] The platelet aggregation studies, Rapid Analyzers measures, and flow cytometry preparations were initiated within no more than 110 minutes following the blood draw, incubation with the drug, and preparation of the samples.
(§3) Formation of platelet-leukocyte aggregates was assessed by dual labeling with pan-platelet marker (CD151), and then with CD14, the macrophage receptor for endotoxin lipopolysaccharides (PharMingen, and Coulter, San Diego, Calif., USA). The tubes were then covered with aluminum foil and incubated at 37° C. for 40 minutes with gentle rotation. After incubation, samples were immediately analyzed on a Becton Dickinson FACScan flow cytometer. The instrument was set up to measure forward light scatter, and FITC fluorescence. All parameters were collected using four-decade logarithmic amplification. The data was retrieved in list mode files and then analyzed. P selectin was expressed as percent positive cells. Other antigens were expressed as log mean fluorescence intensity.

LAMP-3 (CD63) = assay: TRAP-stimulated whole blood flow cytometry, LAMP-3; details: Mean ± SD
Experimental: as §1, §2, §3
(§4) For flow cytometry (TRAP-stimulated) all of the above flow cytometry experiments were identically repeated utilizing prestimulation with 10 μmol/L TRAP for 5 minutes at 37° C. To determine statistics, a Paired Sign Test was used to define significance of differences between vehicle and E5555-treated groups. The Mann-Whitney U test was used to analyze nonparametric data. Normally distributed data were expressed as mean±standard error (m±SE), and skewed data as median (range). All P-values were two sided. All analysis was performed using the SPSS v9.0 program (SPSS Inc., Chicago, Ill.).

GPIIb antigen (CD41) = assay: TRAP-stimulated whole blood flow cytometry, GPIIb antigen; details: Mean ± SD
Experimental: as §1, §2, §3, §4

VTNR (CD51/61) = assay: TRAP-stimulated whole blood flow cytometry, vitronectin receptor; details: Mean ± SD
Experimental: as §1, §2, §3, §4

WEDE15 = assay: Unstimulated whole blood flow cytometry, WEDE15; details: Mean ± SD
Experimental: as §1, §2, §3

PECAM-1 (CD31) = assay: TRAP-stimulated whole blood flow cytometry, PECAM-1; details: Mean ± SD
Experimental: as §1, §2, §3, §4

platelets = assay: Conventional platelet aggregation in PRP induced by 1 μg/ml collagen; details: for Platelet Aggregation (%), Collagen 1 μg/mL: Mean ± SD
Experimental: as §1, §2
Platelet counts were determined in each PRP sample with a Coulter Counter ZM (Coulter Co., Hialeah, Fla.). Platelet numbers were adjusted to 3.50×10^8/ml for aggregation using homologous platelet-poor plasma. Platelet aggregation was stimulated with 5 μM ADP, 1 μg/ml collagen, or 10 μM TRAP. All agonists were obtained from Chronolog Corporation (Havertown, Pa.) and Sigma (St. Louis, Miss.). Platelet aggregation experiments were performed using a Chrono-Log Lumi-Aggregometer (model 560-Ca). Aggregation curves were recorded for 4 minutes and analyzed according to internationally established standards using Aggrolink® software. Platelet aggregability was expressed as the percentage of light transmittance change from baseline using platelet-poor plasma as a reference.

[1] = E5555 20 ng/ml, Patients (ASA + C)
[2] = E5555 50 ng/ml, Patients (ASA + C)
[3] = E5555 100 ng/ml, Patients (ASA + C)
[4] = E5555 100 ng/ml, Patients (ASA)

Br.CCOc1cc2c(c(F)c1OCC)C(=N)N(CC(=O)c1cc(N3CCOCC3)c(OC)c(C(C)(C)C)c1)C2 [E5555, 1-(3-tert-butyl-4-methoxy-5-morpholinophenyl)-2-(5,6-diethoxy-7-fluoro-1-imino-1,3-dihydro-2H-isoindol-2-yl)ethanone hydrobromide]
GP37 (CD165), Mean Fluorescence Intensity (GP37 (CD165); [1]): 25 ± 11 MFI | GP37 (CD165), Mean Fluorescence Intensity (GP37 (CD165); E5555 20 ng/ml, Patients (ASA)): 30 ± 7 MFI | GP37 (CD165), Mean Fluorescence Intensity (GP37 (CD165); E5555 20 ng/ml, Volunteers): 27 ± 8 MFI | GP37 (CD165), Mean Fluorescence Intensity (GP37 (CD165); [2]): 28 ± 10 MFI | GP37 (CD165), Mean Fluorescence Intensity (GP37 (CD165); E5555 50 ng/ml, Patients (ASA)): 27 ± 12 MFI | GP37 (CD165), Mean Fluorescence Intensity (GP37 (CD165); E5555 50 ng/ml, Volunteers): 28 ± 7 MFI | GP37 (CD165), Mean Fluorescence Intensity (GP37 (CD165); [3]): 25 ± 12 MFI | GP37 (CD165), Mean Fluorescence Intensity (GP37 (CD165); [4]): 28 ± 11 MFI | GP37 (CD165), Mean Fluorescence Intensity (GP37 (CD165); E5555 100 ng/ml, Volunteers): 26 ± 6 MFI | LAMP-3 (CD63), Mean Fluorescence Intensity (LAMP-3 (CD63); [1]): 20 ± 5 MFI | LAMP-3 (CD63), Mean Fluorescence Intensity (LAMP-3 (CD63); E5555 20 ng/ml, Patients (ASA)): 24 ± 8 MFI | LAMP-3 (CD63), Mean Fluorescence Intensity (LAMP-3 (CD63); E5555 20 ng/ml, Volunteers): 26 ± 7 MFI | LAMP-3 (CD63), Mean Fluorescence Intensity (LAMP-3 (CD63); [2]): 5 ± 3 MFI | LAMP-3 (CD63), Mean Fluorescence Intensity (LAMP-3 (CD63); E5555 50 ng/ml, Patients (ASA)): 9 ± 3 MFI | LAMP-3 (CD63), Mean Fluorescence Intensity (LAMP-3 (CD63); E5555 50 ng/ml, Volunteers): 8 ± 2 MFI | LAMP-3 (CD63), Mean Fluorescence Intensity (LAMP-3 (CD63); [3]): 4 ± 1 MFI | LAMP-3 (CD63), Mean Fluorescence Intensity (LAMP-3 (CD63); [4]): 5 ± 1 MFI | LAMP-3 (CD63), Mean Fluorescence Intensity (LAMP-3 (CD63); E5555 100 ng/ml, Volunteers): 7 ± 2 MFI | GPIIb antigen (CD41), Mean Fluorescence Intensity (GPIIb antigen (CD41); [1]): 328 ± 41 MFI | GPIIb antigen (CD41), Mean Fluorescence Intensity (GPIIb antigen (CD41); E5555 20 ng/ml, Patients (ASA)): 471 ± 38 MFI | GPIIb antigen (CD41), Mean Fluorescence Intensity (GPIIb antigen (CD41); E5555 20 ng/ml, Volunteers): 504 ± 18 MFI | GPIIb antigen (CD41), Mean Fluorescence Intensity (GPIIb antigen (CD41); [2]): 209 ± 30 MFI | GPIIb antigen (CD41), Mean Fluorescence Intensity (GPIIb antigen (CD41); E5555 50 ng/ml, Patients (ASA)): 376 ± 35 MFI | GPIIb antigen (CD41), Mean Fluorescence Intensity (GPIIb antigen (CD41); E5555 50 ng/ml, Volunteers): 390 ± 31 MFI | GPIIb antigen (CD41), Mean Fluorescence Intensity (GPIIb antigen (CD41); [3]): 176 ± 19 MFI | GPIIb antigen (CD41), Mean Fluorescence Intensity (GPIIb antigen (CD41); [4]): 304 ± 40 MFI | GPIIb antigen (CD41), Mean Fluorescence Intensity (GPIIb antigen (CD41); E5555 100 ng/ml, Volunteers): 364 ± 37 MFI | VTNR (CD51/61), Mean Fluorescence Intensity (VTNR (CD51/61); [1]): 10.2 ± 1.5 MFI | VTNR (CD51/61), Mean Fluorescence Intensity (VTNR (CD51/61); E5555 20 ng/ml, Patients (ASA)): 10.8 ± 2.1 MFI | VTNR (CD51/61), Mean Fluorescence Intensity (VTNR (CD51/61); E5555 20 ng/ml, Volunteers): 10.4 ± 1.3 MFI | VTNR (CD51/61), Mean Fluorescence Intensity (VTNR (CD51/61); [2]): 10.9 ± 1.6 MFI | VTNR (CD51/61), Mean Fluorescence Intensity (VTNR (CD51/61); E5555 50 ng/ml, Patients (ASA)): 10.5 ± 1.3 MFI | VTNR (CD51/61), Mean Fluorescence Intensity (VTNR (CD51/61); E5555 50 ng/ml, Volunteers): 10.1 ± 1.7 MFI | VTNR (CD51/61), Mean Fluorescence Intensity (VTNR (CD51/61); [3]): 11.0 ± 2.0 MFI | VTNR (CD51/61), Mean Fluorescence Intensity (VTNR (CD51/61); [4]): 9.9 ± 1.3 MFI | VTNR (CD51/61), Mean Fluorescence Intensity (VTNR (CD51/61); E5555 100 ng/ml, Volunteers): 10.7 ± 1.5 MFI | WEDE15, Mean Fluorescence Intensity (WEDE15; [1]): 30 ± 8 MFI | WEDE15, Mean Fluorescence Intensity (WEDE15; E5555 20 ng/ml, Patients (ASA)): 40 ± 11 MFI | WEDE15, Mean Fluorescence Intensity (WEDE15; E5555 20 ng/ml, Volunteers): 40 ± 9 MFI | WEDE15, Mean Fluorescence Intensity (WEDE15; [2]): 27 ± 6 MFI | WEDE15, Mean Fluorescence Intensity (WEDE15; E5555 50 ng/ml, Patients (ASA)): 38 ± 8 MFI | WEDE15, Mean Fluorescence Intensity (WEDE15; E5555 50 ng/ml, Volunteers): 41 ± 6 MFI | WEDE15, Mean Fluorescence Intensity (WEDE15; [3]): 29 ± 12 MFI | WEDE15, Mean Fluorescence Intensity (WEDE15; [4]): 35 ± 5 MFI | WEDE15, Mean Fluorescence Intensity (WEDE15; E5555 100 ng/ml, Volunteers): 40 ± 10 MFI | PECAM-1 (CD31), Mean Fluorescence Intensity (PECAM-1 (CD31); [1]): 58 ± 9 MFI | PECAM-1 (CD31), Mean Fluorescence Intensity (PECAM-1 (CD31); E5555 20 ng/ml, Patients (ASA)): 50 ± 6 MFI | PECAM-1 (CD31), Mean Fluorescence Intensity (PECAM-1 (CD31); E5555 20 ng/ml, Volunteers): 60 ± 9 MFI | PECAM-1 (CD31), Mean Fluorescence Intensity (PECAM-1 (CD31); [2]): 60 ± 7 MFI | PECAM-1 (CD31), Mean Fluorescence Intensity (PECAM-1 (CD31); E5555 50 ng/ml, Patients (ASA)): 54 ± 9 MFI | PECAM-1 (CD31), Mean Fluorescence Intensity (PECAM-1 (CD31); E5555 50 ng/ml, Volunteers): 55 ± 10 MFI | PECAM-1 (CD31), Mean Fluorescence Intensity (PECAM-1 (CD31); [3]): 57 ± 11 MFI | PECAM-1 (CD31), Mean Fluorescence Intensity (PECAM-1 (CD31); [4]): 52 ± 12 MFI | PECAM-1 (CD31), Mean Fluorescence Intensity (PECAM-1 (CD31); E5555 100 ng/ml, Volunteers): 60 ± 7 MFI | inhibition of platelet activity, aggregation induced by collagen (platelets; ASA-treated patients with coronary artery disease): 10-12% | collagen-induced aggregation, effect in words (platelets; CAD patients treated with ASA+clopidogrel): moderate inhibition | Platelet Aggregation (%), Collagen 1 μg/mL (platelets; E5555 20 ng/ml, CAD patients treated with ASA + clopidogrel): 20.6 ± 3.2 % | Platelet Aggregation (%), Collagen 1 μg/mL (platelets; E5555 20 ng/ml, CAD patients treated with ASA): 23.9 ± 4.8 % | Platelet Aggregation (%), Collagen 1 μg/mL (platelets; E5555 20 ng/ml, healthy volunteers): 67.6 ± 6.2 % | Platelet Aggregation (%), Collagen 1 μg/mL (platelets; E5555 50 ng/ml, CAD patients treated with ASA + clopidogrel): 24.0 ± 3.3 % | Platelet Aggregation (%), Collagen 1 μg/mL (platelets; E5555 50 ng/ml, CAD patients treated with ASA): 26.1 ± 4.0 % | Platelet Aggregation (%), Collagen 1 μg/mL (platelets; E5555 50 ng/ml, healthy volunteers): 69.1 ± 6.5 % | Platelet Aggregation (%), Collagen 1 μg/mL (platelets; E5555 100 ng/ml, CAD patients treated with ASA + clopidogrel): 21.7 ± 4.2 % | Platelet Aggregation (%), Collagen 1 μg/mL (platelets; E5555 100 ng/ml, CAD patients treated with ASA): 25.7 ± 5.2 % | Platelet Aggregation (%), Collagen 1 μg/mL (platelets; E5555 100 ng/ml, healthy volunteers): 72.8 ± 7.5 % | inhibition of conventional platelet aggregation induced by collagen (platelets; healthy volunteers, E5555 20, 50, and 100 ng/ml): 15-20% | inhibition of collagen-induced platelet aggregation in plasma (platelets; overall summary of the study): 10-15%
